Literature values as cited in paper PMC8674003 (CPT: Pharmacometrics & Systems Pharmacology, 2021).
Positions of bridges follow the written chain, without caps; N, C: chain ends. Non-standard residues stand in square brackets, D forms with d. Residues, ends and D or L forms follow the SMILES beside them. *: point of attachment. X1 = CC[C@H](C)CCCCC(=O)*; Dab = NCC[C@H](N)C(=O)O

How the values were obtained:
[1] = components administered individually to Sprague-Dawley rats
[2] = IV
[3] = M4 (Wang et al.), 2 CMT, Phoenix NLME (7.0), 46 patients

CC[C@H](C)CCCCC(=O)N[C@@H](CCN)C(=O)N[C@H](C(=O)N[C@@H](CCN)C(=O)N[C@H]1CCNC(=O)[C@H]([C@@H](C)O)NC(=O)[C@H](CCN)NC(=O)[C@H](CCN)NC(=O)[C@H](CC(C)C)NC(=O)[C@@H](Cc2ccccc2)NC(=O)[C@H](CCN)NC1=O)[C@@H](C)O [polymyxin B1] (X1-[Dab]T[Dab][Dab][Dab][dF]L[Dab][Dab]T; lactam 4-C)
Plasma protein binding, B1 compared with B2 [1]: higher compared with B2

CC[C@H](C)CCCCC(=O)N[C@@H](CCN)C(=O)N[C@H](C(=O)N[C@@H](CCN)C(=O)N[C@H]1CCNC(=O)[C@H]([C@@H](C)O)NC(=O)[C@H](CCN)NC(=O)[C@H](CCN)NC(=O)[C@H](CC(C)C)NC(=O)[C@@H](Cc2ccccc2)NC(=O)[C@H](CCN)NC1=O)[C@@H](C)O [polymyxin B, Polymyxin B] (X1-[Dab]T[Dab][Dab][Dab][dF]L[Dab][Dab]T; lactam 4-C)
Q, intercompartmental clearance [2, 3]: 13.52 L/h | V1, typical volume of central compartment [2, 3]: 6.22 L | V2, typical volume of peripheral compartment [2, 3]: 11.92 L | V, volume of distribution ([2]; M7 (Yu et al.), 1 CMT, NONMEM (7.4), 32 patients): 20.5 L
